US20180078576A1, “SULPHATED XYLANS FOR TREATMENT OR PROPHYLAXIS OF RESPIRATORY DISEASES” (Paradigm Biopharmaceuticals Limited, priority 2007, published 2018)

Key:
human MCP-1 = human MCP-1 (Homo sapiens, UniProt P13500); assay: MCP-1 induced migration of THP-1 cells (chemotaxis); assay type: cell-based; details: 50 μg/ml, MCP-1 10 ng/ml
Description: These cells were originally derived from the peripheral blood of a patient with acute monocytic leukaemia. The assay was very similar to that described above. The chemotaxis assays were performed in 96-well Costar chemotaxis plates and human MCP-1 (+/−inhibitor) was added to the bottom chamber and the THP-1 cells in RPMI/1% FCS were added to the top chamber and the plate was incubated at 37° C. for 2.5 hour to allow cells to move from the top chamber into the bottom. The number of cells migrating into the bottom chamber was quantified by labeling with AQUEOUS ONE (30 μl/well) for 4 hours before absorbance at 490 run is read. MCP-1 was used at a final concentration of 10 ng/ml and the inhibitors were the sulfated xylan pentasaccharide (10 and 50 μg/ml) and PPS (10 and 50 μg/ml). In these experiments both PPS and the sulfated xylan pentasaccharide were effective, but PPS was a better inhibitor (FIG. 18) as at 50 μg/ml PPS inhibited cell movement by 89% whereas at the same concentration the sulfated xylan pentasaccharide cell movement by 53%.

eotaxin-2 = target: T1, eotaxin-2 (Homo sapiens, UniProt O00175); assay: BIAcore inhibition of eotaxin-2 binding to immobilized heparin; details: BIAcore chip, FIG. 3E
T1 sequence (O00175 27-119): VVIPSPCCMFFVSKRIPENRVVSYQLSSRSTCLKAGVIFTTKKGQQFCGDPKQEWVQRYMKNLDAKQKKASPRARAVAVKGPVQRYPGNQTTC
From the text: The optical phenomenon of surface plasmon resonance is used to monitor physical interactions between molecules. Passing a solution of a potential protein ligand (e.g. IL-4, IL-5 or eotaxin) over a sensor surface to which a target (e.g. heparin) is coupled monitors the real-time binding of protein ligands to the immobilized target. Detection is achieved by measuring refractive index changes very close to the sensor surface. When the refractive index is altered, the angle at which plasmon resonance occurs changes and this change directly correlates with the amount of protein interacting with the surface. A BIAcore 2000 is conveniently used. […]
Biotinylated heparin is immobilized on the biosensor chip. […] Solutions containing potential protein ligands of interest are injected over the sensor chip surface, and the binding is measured in real time (Fernig, In: Proteoglycan protocols, Ed. R. V. Iozzo, Humana Press, Totowa, N.J., USA, 2001). Baculovirus expressed recombinant human IL-4 (rhIL-4) and baculovirus expressed recombinant human IL-5 (rhIL-5) readily bind to heparin immobilized by this method (see PCT/AU2005/000551). […] Similarly, recombinant human eotaxin (CCL11) expressed in E. coli binds readily to immobilized heparin and binding is specific as there is little eotaxin binding to sensor chips lacking heparin. […]

[1] = tested on: Guinea pigs sensitized to OVA and challenged with inhaled OVA; assay: Second guinea pig asthma model, parameters 8 hours after OVA inhalation; assay type: in vivo
Description: A slightly different animal model was also examined. In this model Guinea pigs were sensitized to OVA twice by an intraperitoneal injection of 0.5 ml saline containing 20 mg Al(OH)3 and 20 μg OVA. The sensitizations are performed on days 0 and 7. Three weeks after the last sensitization, animals were pre-treated with either vehicle or drugs 30 min prior to inhalation of OVA (at 10 mg/ml) for 6 min (allergen challenge). For the negative control, animals received either sensitization and challenge with saline or sensitization with saline and challenge with OVA. Animals were terminated and all parameters measured 8 hours after the provocation. Vehicle or drugs were administered intra-tracheally, 1 ml/kg body weight, 30 min before the intra-tracheal challenge with OVA. The vehicle for compounds was saline. Budesonide as the reference compound was dissolved in the vehicle at concentrations of 1 mg/ml. To measure airway resistance (RL.) and lung compliance (Cdyn) bronchoconstriction was evoked with aerosolized methacholine (3 mg/ml, 10 mg/ml and 30 mg/ml). The difference between baseline readings and that obtained after methacholine were used to calculate Cdyn and RL. Bronchoalveolar lavage (BAL) was performed immediately after the lung function measurements. BAL was analysed for protein content (as a measure of leakage) and leukocyte number, differential cell counts were performed to indicate what subsets of leukocytes were best affected by the drugs.

[2] = tested on: male C57Bl/6J mice exposed to cigarette smoke; assay: Mouse model of emphysema/COPD, chronic cigarette smoke exposure; assay type: in vivo; details: chronic smoke exposure 6 months, PPS once a day
Description: A mouse model of emphysema was used. Acute and chronic exposure of mice to cigarette smoke lead to lung responses that in part mimic the inflammatory and structural changes observed in COPD. In this model male C57Bl/6J mice are subjected to acute and chronic smoke exposure, with normal room air being the control situation. In the acute study mice were exposed to either room air or to the smoke of five cigarettes (approximately 12 mg of tar and 0.9 mg of nicotine) for 20 minutes. In the chronic study mice were exposed to either room air or to the smoke of three cigarettes/day for 5 days/week for 6 months. The 4 groups of mice were then further divided so that mice within each group also received PPS via an inhaled route.
The animals in the chronic study received PPS once a day for the duration of the experiment. At the completion of the experiment animals were killed and the lungs fixed intratracheally with formalin (5%) and lung volume was measured by water displacement. The lung tissue was prepared for histochemistry and immunohistochemistry, the lung tissues being stained for hematoxylin-eosin and/or periodic acid-Schiff or with antibodies to the macrophage marker Mac-3. The level of desmosine in the lung tissue was also determined. Desmosine is an elastin-specific imino acid; the assessment of desmosine in the lung is taken as an indicator of the lung elastin content. […]

Sequence of human MCP-1 (P13500 24-99): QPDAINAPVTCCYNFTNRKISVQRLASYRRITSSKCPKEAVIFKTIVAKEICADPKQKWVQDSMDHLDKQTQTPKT

Pentosan polysulfate [PPS] was tested, and the “Inhibition of cell movement induced by MCP-1” value (human MCP-1) was 89%, the IC50 (eotaxin-2) was ~15 nM and the “Inhibition of RL (airway resistance)” value ([1]; 0.5 mg/kg, FIG. 15A) was 103%. For the same substance, the “Inhibition of RL (airway resistance)” value ([1]; 2.4 mg/kg, FIG. 15A) was 94%, the “Inhibition of RL (airway resistance)” value ([1]; 10 mg/kg, FIG. 15A) was 100% and the “Total number of infiltrating leukocytes in the bronchoalveolar fluid (in words)” value ([1]; 0.1, 0.5, 2.5, 10 mg/kg intra-tracheal, FIG. 14B) was “significantly reduced”. The “Total protein content in the bronchoalveolar fluid” value ([1]; 0.1, 0.5, 2.5, 10 mg/kg intra-tracheal, all except 0.1 mg/kg significant (P<0.05), dose dependent, FIG. 14A) was “significantly reduced”, the “Inhibitory effect on RL (airway resistance)” value ([1]; all doses, after 10 mg/ml methacholine, FIG. 15A) was “more than 90%” and the “Effect on alterations of lung compliance (Cdyn)” value ([1]; represented as an increase in lung compliance, FIG. 15B) was “Inhibitory effects”. The “Overall effect in chronic COPD model” value [2] was “acting as an anti-inflammatory agent”.
